Data set [1] is described as follows: Muscle concentration in GRMD dogs. The data set is classed as in vivo, dog. The note with it: end of the dosing period. How it is done: We viewed data in mice as encouraging but were interested in testing EDG-5506 in dystrophic golden retriever (GRMD) dogs; their muscle composition and function more closely resemble that of humans ([40]). Older (7 months of age), disease-stable GRMD were dosed in 2-week periods with vehicle, then EDG-5506, followed by a vehicle washout. As fast fiber atrophy has been documented in DMD dogs ([16]), we confirmed sustained fast myosin from biopsies of age-matched WT/GRMD gastrocnemius muscle (Supplemental Figure 6A). EDG-5506 concentration was measured from a muscle biopsy at the end of the dosing period (4,951 ± 217 ng/g muscle). EDG-5506 administration was associated with a more than 50% decrease in CK, returning to pretreatment levels after compound washout (Figure 6A). Physical activity normally increases CK in GRMD ([41]), raising the question of whether EDG-5506 lowered CK via decreasing physical activity. We sought to test the effect of EDG-5506 on habitual activity in the same dogs using an activity monitor ([42]). EDG-5506 improved average daily activity by more than 30% (Figure 6B and Supplemental Figure 6B) with reversible increases in time active and decreases in time resting (Figure 6C). One GRMD used in the biomarker study was too severely progressed to participate in this study.

Data set [2] deals with T1, bovine cardiac myofibrils (Bos taurus, UniProt Q9BE39).
T1 construct: from tissue; host or cells: bovine cardiac ventricle
The experiment in a line: Myofibril ATPase, bovine cardiac. The conditions noted are these: bovine cardiac ventricle; at pCa50. It is filed as biochemical. How it is done: Myofibrils were prepared from various animals and tissues: rabbit psoas muscle and porcine cardiac muscle were purchased from Pel-Freez Biologicals. Human bicep and soleus muscle were purchased from BioIVT, and neonatal rat muscle was obtained in house. All myofibrils were prepared using published methods ([21]).
A lactate dehydrogenase/pyruvate kinase enzyme-coupled system ([62]) was used to monitor ATP hydrolysis rates in various muscle preparations. Rabbit psoas myofibrils were used for high-throughput screening at pCa 6.25 at 0.25 mg/mL. A multidrop cassette (Thermo Fisher Scientific) dispensed 10 μL of the coupled enzyme system, calcium, and myofibrils to 10 μL ATP, NADH and PEP to initiate the reaction prior to reading on a plate reader (Envision, Perkin Elmer) for 10 minutes per plate at room temperature. Hits were reconfirmed, and secondary assays were used to evaluate selectivity, including bovine cardiac myofibrils (pCa 5.86) and enzyme coupled hits with a hexokinase screen (Sigma-Aldrich).

In data set [3] the target is T2, porcine ventricular cardiac S1 (Sus scrofa, UniProt P79293).
T2 construct: tissue Pel-freez; host or cells: frozen porcine ventricular muscle; myosin extracted and digested with alpha-chymotrypsin
The experiment in a line: Actin-activated myosin S1 ATPase, cardiac. It is filed as biochemical. How it is done:
Smooth muscle chicken gizzard S1 was purchased from Cytoskeleton Inc. Other myosin S1 was prepared via published protocols ([21]). Briefly, fresh rabbit psoas and frozen porcine ventricular muscle (Pel-freez) were extracted in 0.3 M KCl, 0.15 M KH2PO4, 1 mM EGTA, 1 mM ATP, 1 mM DTT, pH 6.5, at 4°C. Full-length myosin was purified from each extract via low-ionic precipitations with final precipitation into PM12 buffer (12 mM PIPES, pH 7.0, 2 mM MgCl2). Purified myosin was resuspended in PIPES/EDTA buffer (20 mM PIPES, pH 6.8, 10 mM EDTA, 1 mM DTT) and reacted with 0.2 mg/mL α-chymotrypsin for 30 minutes at room temperature. Proteolysis was quenched with PMSF (final concentration 100 μM), and the reaction was centrifuged for 45 minutes at 230,000g. S1 fragment in the supernatant was dialyzed into PM12 with 0.02% sodium azide and clarified by centrifugation. Sucrose was added to 10% w/v and flash-frozen in liquid N2 and stored at –80°C. […]
A lactate dehydrogenase/pyruvate kinase enzyme-coupled system ([62]) was used to monitor ATP hydrolysis rates in various muscle preparations. […] A multidrop cassette (Thermo Fisher Scientific) dispensed 10 μL of the coupled enzyme system, calcium, and myofibrils to 10 μL ATP, NADH and PEP to initiate the reaction prior to reading on a plate reader (Envision, Perkin Elmer) for 10 minutes per plate at room temperature. […]

T1 sequence (Q9BE39 whole entry): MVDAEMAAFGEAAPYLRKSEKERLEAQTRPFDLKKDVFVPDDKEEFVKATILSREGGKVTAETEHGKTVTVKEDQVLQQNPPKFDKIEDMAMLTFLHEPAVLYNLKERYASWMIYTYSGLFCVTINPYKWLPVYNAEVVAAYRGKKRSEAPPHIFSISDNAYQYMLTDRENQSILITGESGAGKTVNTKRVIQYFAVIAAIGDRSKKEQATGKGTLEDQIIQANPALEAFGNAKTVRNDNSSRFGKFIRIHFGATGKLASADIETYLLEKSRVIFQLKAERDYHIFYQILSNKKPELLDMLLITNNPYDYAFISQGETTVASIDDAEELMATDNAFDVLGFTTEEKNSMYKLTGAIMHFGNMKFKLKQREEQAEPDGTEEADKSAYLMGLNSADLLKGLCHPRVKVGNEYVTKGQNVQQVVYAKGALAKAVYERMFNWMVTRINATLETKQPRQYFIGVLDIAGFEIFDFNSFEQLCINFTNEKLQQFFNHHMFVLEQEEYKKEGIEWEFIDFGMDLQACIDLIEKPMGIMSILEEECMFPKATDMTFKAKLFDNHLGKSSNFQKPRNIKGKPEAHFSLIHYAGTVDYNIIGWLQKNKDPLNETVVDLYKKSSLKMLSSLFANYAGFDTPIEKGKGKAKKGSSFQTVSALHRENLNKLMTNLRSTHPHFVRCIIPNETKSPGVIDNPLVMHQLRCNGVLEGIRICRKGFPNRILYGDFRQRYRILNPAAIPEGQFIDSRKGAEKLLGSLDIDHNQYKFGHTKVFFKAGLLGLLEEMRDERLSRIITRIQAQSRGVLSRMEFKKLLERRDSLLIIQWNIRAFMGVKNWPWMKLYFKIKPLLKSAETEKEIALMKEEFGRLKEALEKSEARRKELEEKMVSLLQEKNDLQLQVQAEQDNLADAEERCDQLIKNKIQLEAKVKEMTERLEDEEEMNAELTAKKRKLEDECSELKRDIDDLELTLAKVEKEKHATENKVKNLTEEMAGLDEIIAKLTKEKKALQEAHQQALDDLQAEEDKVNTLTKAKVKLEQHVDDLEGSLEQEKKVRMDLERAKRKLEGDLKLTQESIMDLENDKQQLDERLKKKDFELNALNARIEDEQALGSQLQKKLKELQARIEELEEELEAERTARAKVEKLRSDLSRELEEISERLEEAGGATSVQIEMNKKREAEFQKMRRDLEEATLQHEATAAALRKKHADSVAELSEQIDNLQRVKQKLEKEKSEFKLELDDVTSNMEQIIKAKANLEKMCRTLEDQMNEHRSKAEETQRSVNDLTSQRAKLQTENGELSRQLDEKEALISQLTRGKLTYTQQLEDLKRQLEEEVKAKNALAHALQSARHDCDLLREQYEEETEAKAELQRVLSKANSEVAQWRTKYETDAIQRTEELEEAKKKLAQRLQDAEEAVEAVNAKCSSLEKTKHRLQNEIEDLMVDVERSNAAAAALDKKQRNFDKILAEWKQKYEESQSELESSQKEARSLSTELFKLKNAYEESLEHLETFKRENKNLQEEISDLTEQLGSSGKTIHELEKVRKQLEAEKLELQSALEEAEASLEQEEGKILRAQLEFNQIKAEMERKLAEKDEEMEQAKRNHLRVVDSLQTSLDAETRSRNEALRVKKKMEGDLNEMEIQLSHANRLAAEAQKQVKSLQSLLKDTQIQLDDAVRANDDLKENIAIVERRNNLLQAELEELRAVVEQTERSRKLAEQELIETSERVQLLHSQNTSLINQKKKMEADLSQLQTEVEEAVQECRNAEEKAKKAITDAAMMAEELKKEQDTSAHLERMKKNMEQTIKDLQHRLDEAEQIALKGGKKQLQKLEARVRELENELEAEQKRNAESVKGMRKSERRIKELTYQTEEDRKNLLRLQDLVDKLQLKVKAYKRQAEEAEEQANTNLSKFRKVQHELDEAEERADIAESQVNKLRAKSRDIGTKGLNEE
T1 sequence (P85100 whole entry partner): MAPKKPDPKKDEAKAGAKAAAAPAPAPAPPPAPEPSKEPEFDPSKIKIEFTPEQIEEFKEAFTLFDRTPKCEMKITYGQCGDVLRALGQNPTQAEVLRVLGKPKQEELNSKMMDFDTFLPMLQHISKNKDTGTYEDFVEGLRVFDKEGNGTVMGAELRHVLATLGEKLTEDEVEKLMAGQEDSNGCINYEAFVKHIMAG
T1 sequence (Q3SZE5 whole entry partner): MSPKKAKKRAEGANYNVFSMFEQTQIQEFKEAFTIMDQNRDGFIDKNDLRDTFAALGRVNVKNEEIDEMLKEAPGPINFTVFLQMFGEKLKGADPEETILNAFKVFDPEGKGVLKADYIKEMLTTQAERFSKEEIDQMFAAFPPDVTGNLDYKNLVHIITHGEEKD
T2 sequence (P79293 1-808 limits assumed): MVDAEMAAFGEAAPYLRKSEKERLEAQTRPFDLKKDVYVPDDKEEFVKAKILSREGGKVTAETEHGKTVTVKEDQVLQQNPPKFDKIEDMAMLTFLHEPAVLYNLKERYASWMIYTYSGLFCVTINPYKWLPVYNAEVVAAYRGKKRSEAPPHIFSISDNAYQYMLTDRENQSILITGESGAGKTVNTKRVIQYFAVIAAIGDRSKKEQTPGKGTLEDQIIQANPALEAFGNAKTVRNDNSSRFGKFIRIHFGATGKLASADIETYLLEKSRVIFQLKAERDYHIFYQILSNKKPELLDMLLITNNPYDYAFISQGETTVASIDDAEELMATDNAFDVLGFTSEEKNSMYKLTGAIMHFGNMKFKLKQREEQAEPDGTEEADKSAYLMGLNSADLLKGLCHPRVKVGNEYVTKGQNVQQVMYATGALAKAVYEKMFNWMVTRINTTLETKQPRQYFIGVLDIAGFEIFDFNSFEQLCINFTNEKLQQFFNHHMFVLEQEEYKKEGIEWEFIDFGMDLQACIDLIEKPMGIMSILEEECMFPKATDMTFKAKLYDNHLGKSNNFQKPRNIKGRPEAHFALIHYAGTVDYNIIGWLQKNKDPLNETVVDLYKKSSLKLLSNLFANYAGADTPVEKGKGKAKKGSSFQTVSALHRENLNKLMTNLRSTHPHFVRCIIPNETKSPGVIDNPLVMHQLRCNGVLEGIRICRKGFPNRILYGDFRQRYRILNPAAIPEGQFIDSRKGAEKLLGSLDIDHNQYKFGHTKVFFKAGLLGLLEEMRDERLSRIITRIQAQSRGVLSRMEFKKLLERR

Consider `O=c1ccc(-c2cnc(OCC(F)(F)F)nc2)nn1Cc1cncc(F)c1` [EDG-5506], for which the “EDG-5506 concentration in muscle biopsy” value in data set [1] was 4,951 ± 217 ng/g muscle. Besides, the IC50 in data set [2] and in data set [3] was over 100 µM in each case.

These data come from publication PMC10178848, “Modulating fast skeletal muscle contraction protects skeletal muscle in animal models of Duchenne muscular dystrophy” (The Journal of Clinical Investigation, 2023).
